According to patent US11970463B2, “Compounds and their use” (ASTRAZENECA AB, priority 2021, dated 2024):
pIC50: −log10 of the molar value. Converted amounts (≈) assume the structure as drawn. Read-outs that look alike come from different tables or passages of the source.

How the values were obtained:
[1] = Solubility (Test F), McIlvaine buffer pH 6.5; format: physicochemical; conditions: McIlvaine buffer pH 6.5, 25° C., 24 to 72 h, theoretical maximum 200 μM; for solubility: disodium hydrogenphosphate-citric acid (McIlvaine) buffer, 25 °C, pH 6.5, aqueous buffer, thermodynamic from solid
[2] = molecular target: Human NLRP3 (Homo sapiens (Human), UniProt Q96P20)
[3] = Test C IC50, IL-1β release, THP-1 cells, LPS 2 μg/mL 24 h, BzATP 1 mM

Chain of Human NLRP3 (Q96P20 whole entry): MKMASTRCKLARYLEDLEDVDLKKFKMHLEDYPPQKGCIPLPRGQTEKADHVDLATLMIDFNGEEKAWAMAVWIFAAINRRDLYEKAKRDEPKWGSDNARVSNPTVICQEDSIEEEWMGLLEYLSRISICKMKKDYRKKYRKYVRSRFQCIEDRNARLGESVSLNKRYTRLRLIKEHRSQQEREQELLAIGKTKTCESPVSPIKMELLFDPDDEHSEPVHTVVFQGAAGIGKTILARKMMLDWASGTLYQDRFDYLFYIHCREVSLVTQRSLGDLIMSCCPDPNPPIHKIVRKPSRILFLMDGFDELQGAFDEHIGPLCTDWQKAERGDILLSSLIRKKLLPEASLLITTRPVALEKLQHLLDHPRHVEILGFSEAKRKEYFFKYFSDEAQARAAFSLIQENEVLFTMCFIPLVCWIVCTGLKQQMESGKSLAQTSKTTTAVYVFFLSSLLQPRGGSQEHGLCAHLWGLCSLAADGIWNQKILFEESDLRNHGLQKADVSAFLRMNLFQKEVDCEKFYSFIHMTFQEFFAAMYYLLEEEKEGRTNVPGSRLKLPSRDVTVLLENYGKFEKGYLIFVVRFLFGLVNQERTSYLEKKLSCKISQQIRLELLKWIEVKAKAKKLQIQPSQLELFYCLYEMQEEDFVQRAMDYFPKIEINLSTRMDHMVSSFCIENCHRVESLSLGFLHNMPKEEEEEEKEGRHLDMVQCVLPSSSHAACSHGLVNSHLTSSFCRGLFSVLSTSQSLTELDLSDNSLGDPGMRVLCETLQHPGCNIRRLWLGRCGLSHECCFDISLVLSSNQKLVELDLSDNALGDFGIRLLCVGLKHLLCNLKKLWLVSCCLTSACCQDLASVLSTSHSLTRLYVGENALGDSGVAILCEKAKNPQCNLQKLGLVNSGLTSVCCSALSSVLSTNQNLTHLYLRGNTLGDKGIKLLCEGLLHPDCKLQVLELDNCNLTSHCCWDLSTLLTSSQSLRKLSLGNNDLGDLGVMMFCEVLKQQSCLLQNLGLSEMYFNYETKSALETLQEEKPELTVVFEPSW

Structure (SMILES) | Test F Solubility [1] [µg/mL] | solubility [1] [µg/mL] | pIC50 [2, 3] | pIC50 [2]
Oc1cccc(C(F)(F)F)c1-c1nnc(N[C@@H]2CCC[C@H](O)C2)c2cnccc12 (racemic) [Example 50, 2-[4-[[(1R,3S)-3-hydroxycyclohexyl]amino]pyrido[3,4-d]pyridazin-1-yl]-3-(trifluoromethyl)phenol] | >80.9 | – | – | –
Oc1cc(C(F)(F)F)ccc1-c1nnc(N[C@H]2CCC[C@H](O)C2)c2ccccc12 (single isomer, unassigned) [Example 29] | 16.1 | – | – | –
Oc1cc(C(F)(F)F)ccc1-c1nnc(N[C@H]2CC[C@@H](O)C2)c2ccccc12 (single isomer, unassigned) [Example 34] | – | 9.3 (≈ 23.9 µM) | 7.74 | –
Oc1cccc(C(F)(F)F)c1-c1nnc(N[C@@H]2CCC[C@H](O)C2)c2cnccc12 (single isomer, unassigned) [Example 49] | – | > 80.9 | 6.39 | –
Oc1cccc(C(F)(F)F)c1-c1nnc(N[C@@H]2CCC[C@H](O)C2)c2cnccc12 (single isomer, unassigned) [Example 50] | – | – | 7.33 | –
OC[C@@H](O)CNc1nnc(-c2ccc(C(F)(F)F)cc2O)c2ccccc12 [Example 1, (2S)-3-[[4-[2-hydroxy-4-(trifluoromethyl)phenyl]phthalazin-1-yl]amino]propane-1,2-diol] | – | 50 (≈ 132 µM) | – | –
OC[C@@H](O)CNc1nnc(-c2ccc(Cl)c(F)c2O)c2ccccc12 [Example 2, (2S)-3-[[4-(4-chloro-3-fluoro-2-hydroxy-phenyl)phthalazin-1-yl]amino]propane-1,2-diol] | – | 24.6 (≈ 67.6 µM) | 6.78 | –
OC[C@@H](O)CNc1nnc(-c2cc(F)c(F)cc2O)c2ccccc12 [Example 3, (2S)-3-[[4-(4,5-difluoro-2-hydroxy-phenyl)phthalazin-1-yl]amino]propane-1,2-diol] | – | 68.6 (≈ 198 µM) | 6.32 | –
OC[C@@H](O)CNc1nnc(-c2c(O)cccc2F)c2ccccc12 [Example 4, (2S)-3-[[4-(2-fluoro-6-hydroxy-phenyl)phthalazin-1-yl]amino]propane-1,2-diol] | – | 23.2 (≈ 70.4 µM) | < 6.00 | –
OC[C@@H](O)CNc1nnc(-c2c(O)cc(F)cc2F)c2ccccc12 [Example 8, (2S)-3-[[4-(2,4-difluoro-6-hydroxy-phenyl)phthalazin-1-yl]amino]propane-1,2-diol] | – | 11.8 (≈ 34 µM) | 6.80 | –
OC[C@@H](O)CNc1nnc(-c2c(O)cccc2Cl)c2ccccc12 [Example 10, (2S)-3-[[4-(2-chloro-6-hydroxy-phenyl)phthalazin-1-yl]amino]propane-1,2-diol] | – | 62.9 (≈ 182 µM) | 6.36 | –
OC[C@H](O)CNc1nnc(-c2ccc(C(F)(F)F)cc2O)c2ccccc12 [Example 12, (2R)-3-[[4-[2-hydroxy-4-(trifluoromethyl)phenyl]phthalazin-1-yl]amino]propane-1,2-diol] | – | 36.4 (≈ 96 µM) | – | –
Cc1ccc(O)c(-c2nnc(NC[C@H](O)CO)c3ccccc23)c1 [Example 13, (2S)-3-[[4-(2-hydroxy-5-methyl-phenyl)phthalazin-1-yl]amino]propane-1,2-diol] | – | > 65.1 | < 5.00 | –
CS(=O)(=O)c1ccc(-c2nnc(N[C@@H]3CC[C@@H](O)C3)c3ccccc23)c(O)c1 [Example 18, 2-[4-[[(1R,3R)-3-hydroxycyclopentyl]amino]phthalazin-1-yl]-5-methylsulfonyl-phenol] | – | > 79.9 | 6.13 | –
C[C@]1(O)C[C@@H](Nc2nnc(-c3c(O)cccc3F)c3ccccc23)C1 [Example 36, 3-fluoro-2-(4-(((1s,3s)-3-hydroxy-3-methylcyclobutyl)amino)phthalazin-1-yl)phenol] | – | 43 (≈ 127 µM) | – | 6.01
Oc1cc(C(F)(F)F)ccc1-c1nnc(N[C@@H]2CCC[C@H](O)C2)c2ccncc12 [Example 43, 2-[1-[[(1R,3S)-3-hydroxycyclohexyl]amino]pyrido[3,4-d]pyridazin-4-yl]-5-(trifluoromethyl)phenol] | – | 37.3 (≈ 92.2 µM) | – | –
Oc1cccc(F)c1-c1nnc(N[C@@H]2CCC[C@H](O)C2)c2cnccc12 [Example 47, 3-fluoro-2-[4-[[(1R,3S)-3-hydroxycyclohexyl]amino]pyrido[3,4-d]pyridazin-1-yl]phenol] | – | > 70.9 | 7.17 | –
CCc1ccc(-c2nnc(N[C@@H]3CCC[C@H](O)C3)c3cnccc23)c(O)c1 [Example 51, 5-ethyl-2-[4-[[(1R,3S)-3-hydroxycyclohexyl]amino]pyrido[3,4-d]pyridazin-1-yl]phenol] | – | > 72.9 | 8.40 | –
C[C@]1(O)C[C@@H](Nc2nnc(-c3ccc(OC(F)(F)F)cc3O)c3ccncc23)C1 [Example 63, 2-(4-(((1s,3s)-3-hydroxy-3-methylcyclobutyl)amino)pyrido[3,4-d]pyridazin-1-yl)-5-(trifluoromethoxy)phenol] | – | 0.8 (≈ 1.97 µM) | – | 8.10
C[C@]1(O)C[C@@H](Nc2nnc(-c3c(O)cccc3F)c3ccncc23)C1 [Example 64, 3-fluoro-2-(4-(((1s,3s)-3-hydroxy-3-methylcyclobutyl)amino)pyrido[3,4-d]pyridazin-1-yl)phenol] | – | > 68.1 | – | 6.95
C[C@]1(O)C[C@@H](Nc2nnc(-c3cc(F)c(F)cc3O)c3ccncc23)C1 [Example 66, 4,5-difluoro-2-(4-(((1s,3s)-3-hydroxy-3-methylcyclobutyl)amino)pyrido[3,4-d]pyridazin-1-yl)phenol] | – | 3.6 (≈ 10 µM) | – | 6.24
CC(C)(O)CNc1nnc(-c2ccc(Cl)cc2O)c2ccncc12 [Example 71, 5-chloro-2-[4-[(2-hydroxy-2-methyl-propyl)amino]pyrido[3,4-d]pyridazin-1-yl]phenol] | – | 21.9 (≈ 63.5 µM) | 7.85 | –
CC(C)(O)CNc1nnc(-c2ccc(OC(F)(F)F)cc2O)c2ccncc12 [Example 72, 2-[4-[(2-hydroxy-2-methyl-propyl)amino]pyrido[3,4-d]pyridazin-1-yl]-5-(trifluoromethoxy)phenol] | – | 5.8 (≈ 14.7 µM) | 7.66 | –
OC[C@@H](O)CNc1nnc(-c2ccc(C(F)(F)F)cc2O)c2ccncc12 [Example 88, (2S)-3-[[1-[2-hydroxy-4-(trifluoromethyl)phenyl]pyrido[3,4-d]pyridazin-4-yl]amino]propane-1,2-diol] | – | > 76.1 | – | –
Oc1cc(C(F)(F)F)ccc1-c1nnc(N[C@@H]2CCC[C@H](O)C2)c2ncccc12 [Example 89, 2-[8-[[(1R,3S)-3-hydroxycyclohexyl]amino]pyrido[2,3-d]pyridazin-5-yl]-5-(trifluoromethyl)phenol] | – | 22.1 (≈ 54.6 µM) | – | –
C[C@]1(O)C[C@@H](Nc2nnc(-c3c(O)cccc3F)c3cccnc23)C1 [Example 90, 3-fluoro-2-(8-(((1s,3s)-3-hydroxy-3-methylcyclobutyl)amino)pyrido[2,3-d]pyridazin-5-yl)phenol] | – | > 68.1 | – | 6.26
Cc1ccc2c(-c3ccc(C(F)(F)F)cc3O)nnc(N[C@@H]3CCC[C@H](O)C3)c2n1 [Example 91, 2-[8-[[(1R,3S)-3-hydroxycyclohexyl]amino]-2-methyl-pyrido[2,3-d]pyridazin-5-yl]-5-(trifluoromethyl)phenol] | – | 0.5 (≈ 1.19 µM) | 8.00 | –
